Here are results for 14 molecules from BindingDB's records for doi:10.1016/s0960-894x(01)00497-8 (Universidad De Sevilla, 2001).

Structures can show the parent of a compound that is named as a salt.

The nature of assay [1]: Inhibitory concentration against alpha-L-Fucosidase of human placenta.
Assay [2] in a line: Inhibitory activity against alpha-L-Fucosidase of bovine epididymis expressed as Ki.
Assay [3] can be described thus: Inhibitory concentration against alpha-L-Fucosidase of bovine epididymis.
Assay [4] can be described thus: Inhibitory activity against alpha-L-fucosidase of bovine epididymis expressed as Ki.
Assay [5] in a line: In vitro inhibition of alpha-L-fucosidase isolated from bovine kidney.
Assay [6] has as its target alpha-L-fucosidase (Bacillus sp. K40T). In words: Inhibitory activity against alpha-L-fucosidase of bacillus species (K40T) expressed as Ki.

What is called Ki is a dissociation constant, usually derived from enzyme kinetics or from competition with a known ligand. The IC50 is the point on the concentration scale where inhibition reaches its midpoint.

In turn, `CC1N=C(NN)[C@@H](O)[C@H](O)C1O` (stereo partly drawn) [(4R,5R)-6-Hydrazino-2-methyl-2,3,4,5-tetrahydro-pyridine-3,4,5-triol] yielded a Ki in assay [1] of 0.82 µM.

In assay [2], `COC(=O)c1cc(C2NCC(O)C2O)oc1C` (stereo unspecified) [5-(3,4-Dihydroxy-pyrrolidin-2-yl)-2-methyl-furan-3-carboxylic acid methyl ester] yielded a Ki of 6.5 µM. Moreover, 100 µM corresponded to half-maximal inhibition in assay [3] (IC50).

As for `CC1C(NCc2ccccc2)C(O)[C@H](O)C1O` (stereo partly drawn) [(R)-4-Benzylamino-5-methyl-cyclopentane-1,2,3-triol], the Ki in assay [1] was found to be 0.68 µM.

`CC(=O)NCC1NCC(O)[C@@H](O)[C@@H]1O` (stereo partly drawn) [N-((3R,4R)-3,4,5-Trihydroxy-piperidin-2-ylmethyl)-acetamide]: in assay [1], the affinity, expressed as Ki, was 4 µM.

For the molecule `CC1SC(Sc2ccc([N+](=O)[O-])cc2)C(O)[C@H](O)C1O` (stereo partly drawn) [(R)-2-Methyl-6-(4-nitro-phenylsulfanyl)-tetrahydro-thiopyran-3,4,5-triol], the Ki in assay [1] amounted to 3.3 µM.

In the case of `CC1CN[C@@H](N)[C@H](O)C1O` (stereo partly drawn) [(2R,3S)-2-Amino-5-methyl-piperidine-3,4-diol], in assay [1], the Ki was determined as 0.016 µM.

In assay [1], `CC1NCC(O)C1O` (stereo unspecified) [2-Methyl-pyrrolidine-3,4-diol] displayed a Ki of 2 µM.

In turn, `CC1C(N)C(O)[C@H](O)C1O` (stereo partly drawn) [(R)-4-Amino-5-methyl-cyclopentane-1,2,3-triol] registered a Ki in assay [1] of 15 µM.

As for `CC1NC(S(=O)(=O)O)C(O)C1O` (stereo unspecified) [3,4-Dihydroxy-5-methyl-pyrrolidine-2-sulfonic acid], in assay [1], affinity was put at a Ki of 0.01 µM.

The molecule `CCCCNC1N[C@@H](CO)C(O)[C@@H](O)[C@@H](CO)N1` (stereo partly drawn) [(6S,7R)-2-Butylamino-4,7-bis-hydroxymethyl-[1,3]diazepane-5,6-diol; trifluoroacetate] came in with an inhibitory constant (Ki) in assay [1] of 2.8 µM.

`C[C@H]1N[C@H](CO)[C@H](O)[C@@H]1O`: the inhibition constant (Ki) in assay [1] came to 9 µM.

With `C[C@@H]1N[C@@H](CO)[C@H](O)[C@@H]1O`, in assay [1], affinity was put at a Ki of 1.4 µM.

`OC1CN(Cc2ccccc2)C[C@@H](O)C(O)C1O` (stereo partly drawn) [(R)-1-Benzyl-azepane-3,4,5,6-tetraol] yielded a Ki in assay [4] of 23.4 µM.

Take `C=CCOC1OC(CO)C(O)C(O)[C@H]1OC1SC(C)C(O)[C@@H](O)C1O` (stereo partly drawn) [(R)-2-((R)-2-Allyloxy-4,5-dihydroxy-6-hydroxymethyl-tetrahydro-pyran-3-yloxy)-6-methyl-tetrahydro-thiopyran-3,4,5-triol]: the inhibition constant (Ki) in assay [5] was 30 µM; in assay [6] it was 0.21 µM.
